From US12150995B2, “IRAK degraders and uses thereof” (Kymera Therapeutics, Inc., priority 2020, dated 2024)

Molecular target: T1, IRAK4 (Homo sapiens, UniProt Q9NWZ3)
T1 construct: endogenous in cells; host or cells: OCI-LY10
T1 sequence (Q9NWZ3 1-460): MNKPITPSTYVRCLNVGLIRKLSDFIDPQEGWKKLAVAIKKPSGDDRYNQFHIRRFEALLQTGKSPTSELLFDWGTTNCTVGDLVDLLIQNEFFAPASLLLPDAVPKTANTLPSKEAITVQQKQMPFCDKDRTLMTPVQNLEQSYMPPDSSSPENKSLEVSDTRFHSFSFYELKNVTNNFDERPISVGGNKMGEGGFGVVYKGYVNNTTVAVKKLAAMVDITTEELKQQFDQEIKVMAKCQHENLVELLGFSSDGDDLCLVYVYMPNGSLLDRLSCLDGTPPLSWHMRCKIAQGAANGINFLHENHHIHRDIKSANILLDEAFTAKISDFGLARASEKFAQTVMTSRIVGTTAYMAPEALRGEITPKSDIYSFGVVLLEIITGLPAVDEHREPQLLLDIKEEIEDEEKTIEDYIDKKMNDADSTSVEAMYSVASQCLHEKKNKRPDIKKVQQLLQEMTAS
Test: IRAK4 MSD Degradation in OCI-LY10
Format: cell-based
Conditions: OCI-LY10 cells, Meso Scale Discovery, incubated 4 to 24 hours
Procedure, shortened: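 OCI-LY10 cells (300,000/well) exposed to an 8-point 1:3 series from a top concentration of 1 to 10 μM for 4 to 24 h at 37 °C. IRAK4 remaining in RIPA lysates quantified by MSD sandwich immunoassay; DC50 from a three-parameter logistic fit.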

DC50 [nM]	SMILES
10 to 50	O=C1CCN(c2cncc3cc(N4CCN(C[C@H]5CC[C@H](n6cc7cc(NC(=O)c8cccc(C(F)(F)F)n8)c(C(F)F)cc7n6)CC5)CC4)ccc23)C(=O)N1 [I-375]
> 200	O=C1CCN(c2cncc3c(C4CCN(C[C@H]5CC[C@H](c6nc7ccc(NC(=O)c8cccc(C(F)(F)F)n8)cc7s6)CC5)CC4)cccc23)C(=O)N1 [I-201]
10 to 50	N#Cc1cnc2c(C(=O)Nc3ccc4nn([C@H]5CC[C@H](CN6CCC(c7cccc8c(N9CCC(=O)NC9=O)cncc78)CC6)CC5)cc4c3)cnn2c1 [I-204, 6-Cyano-N-[2-[4-[[4-[4-(2,4-dioxohexahydropyrimidin-1-yl)-8-isoquinolyl]-1-piperidyl]methyl]cyclohexyl]indazol-5-yl]pyrazolo[1,5-a]pyrimidine-3-carboxamide]
< 10	COc1cc2nn([C@H]3CC[C@H](CN4CCN(c5cccc6c5n(C5CC5)c(=O)n6C5CCC(=O)NC5=O)CC4)CC3)cc2cc1NC(=O)c1cccc(C(F)(F)F)n1 (stereo partly drawn) [I-426]
< 10	CN(C[C@H]1CC[C@H](n2cc3cc(NC(=O)c4cccc(C(F)(F)F)n4)c(C(C)(C)O)cc3n2)CC1)C1CCN(c2ccc3c(N4CCC(=O)NC4=O)cncc3c2)CC1 [I-65]
< 10	COc1cc2nn([C@H]3CC[C@H](CN4CCC(c5c(OC)ccc6c5n(C)c(=O)n6C5CCC(=O)NC5=O)CC4)CC3)cc2cc1NC(=O)c1cccc(C(F)(F)F)n1 (stereo partly drawn) [I-48]
10 to 50	C=C/C(NCCCN1CCN(C[C@H]2CC[C@H](c3nc4cc(C(C)(C)O)c(NC(=O)c5cccc(C)n5)cc4s3)CC2)C[C@@H]1C)=C1/C(=O)N(C2CCC(=O)NC2=O)C(=O)/C1=C/C (stereo partly drawn) [I-443]
10 to 50	CC(C)(O)c1cc2nc([C@H]3CC[C@H](CN4CC5(CC(CCNc6cccc7c6C(=O)N(C6CCC(=O)NC6=O)C7=O)C5)C4)CC3)cn2cc1NC(=O)c1cccc(C(F)(F)F)n1 (stereo partly drawn) [I-12]
10 to 50	COc1cc2nc(N3CCC(CN4CCN(c5cccc6c5n(C)c(=O)n6C5CCC(=O)NC5=O)CC4)CC3)sc2cc1NC(=O)c1cccc(C(F)(F)F)n1 (stereo not drawn) [I-427]
100 to 200	COc1ccc2c(c1C1CCN(C[C@H]3CC[C@H](n4cc5cc(NC(=O)c6cncc(Cl)c6)ccc5n4)CC3)CC1)n(C)c(=O)n2C1CCC(=O)NC1=O (stereo partly drawn) [I-116]
10 to 50	CN(Cc1ccc(-n2cc3cc(NC(=O)c4cccc(C(F)(F)F)n4)c(C(C)(C)O)cc3n2)cc1)[C@H]1CC[C@H](Nc2cccc3c2C(=O)N(C2CCC(=O)NC2=O)C3=O)CC1 (stereo partly drawn) [I-463]
100 to 200	COc1cc2nn(CCN(C)C3CCN(c4cccc5c4n(C)c(=O)n5C4CCC(=O)NC4=O)CC3)cc2cc1NC(=O)c1cnn2cccnc12 (stereo not drawn) [I-21, N-[2-[2-[[1-[1-(2,6-dioxo-3-piperidyl)-3-methyl-2-oxo-benzimidazol-4-yl]-4-piperidyl]-methyl-amino]ethyl]-6-methoxy-indazol-5-yl]pyrazolo[1,5-a]pyrimidine-3-carboxamide]
> 200	Cn1c(=O)n(C2CCC(=O)NC2=O)c2cccc(C3CCN(C[C@H]4CC[C@H](n5cc6cc(NC(=O)c7cccc(C(F)(F)F)n7)ccc6n5)CC4)C(C(F)(F)F)C3)c21 (stereo partly drawn) [I-172]
> 200	CN(C[C@H]1CC[C@H](c2cc3cc(NC(=O)c4cccc(C(F)(F)F)n4)c(F)cc3n2C)CC1)C1CCN(c2cccc3c2n(C)c(=O)n3C2CCC(=O)NC2=O)CC1 (stereo partly drawn) [I-59]
< 10	COc1cc2nn([C@H]3CC[C@H](CN4CCC(c5cccc6c5n(C)c(=O)n6C5CCC(=O)NC5=O)CC4)CC3)cc2cc1NC(=O)c1cncc(C#N)c1 (stereo partly drawn) [I-77]
< 10	COc1cc2nn([C@H]3CC[C@H](CN4CCN(c5c(OC)ccc6c5n(C)c(=O)n6C5CCC(=O)NC5=O)CC4)CC3)cc2cc1NC(=O)c1cccc(C(F)(F)F)n1 (stereo partly drawn) [I-364]
10 to 50	CC(C)(O)c1cc2nc([C@H]3CC[C@H](CN4CC5(CC(CCNc6cccc7c6C(=O)N(C6CCC(=O)NC6=O)C7=O)C5)C4)CC3)sc2cc1NC(=O)c1cncc(C#N)c1 (stereo partly drawn) [I-461]

More lines, now with the values behind:

SMILES	DC50 [nM]
CC(C)(O)c1cc2nn([C@H]3CC[C@H](CN4C[C@H]5C[C@@H]4CN5c4cccc5c(N6CCC(=O)NC6=O)cncc45)CC3)cc2cc1NC(=O)c1cccc(C(F)(F)F)n1 [I-229]	< 10
COc1cc2nn([C@H]3CC[C@H](CN4CCN(c5ccc6c(N7CCC(=O)NC7=O)cncc6c5)CC4)CC3)cc2cc1NC(=O)c1cccc(C(F)(F)F)n1 [I-208]	< 10
COc1cc2nn([C@H]3CC[C@H](CN4CCC(CCNc5cccc6c5C(=O)N(C5CCC(=O)NC5=O)C6=O)CC4)CC3)cc2cc1NC(=O)c1cccc(C(C)(F)F)n1 (stereo partly drawn) [I-8]	10 to 50
Cc1cc2nn([C@H]3CC[C@H](CN4CCN(c5cccc6c(N7CCC(=O)NC7=O)cncc56)CC4)CC3)cc2cc1NC(=O)c1cccc(C(F)(F)F)n1 [I-261]	10 to 50
CC(C)(O)c1cc2nc([C@H]3CC[C@H](CN4CCO[C@H](CCCNc5cccc6c5C(=O)N(C5CCC(=O)NC5=O)C6=O)C4)CC3)sc2cc1NC(=O)c1cncc(C#N)c1 (stereo partly drawn) [I-455]	> 200
COc1cc2nn([C@H]3CC[C@H](CN4CCC(c5cc(F)cc6c5n(C)c(=O)n6C5CCC(=O)NC5=O)CC4)CC3)cc2cc1NC(=O)c1cccc(C(F)(F)F)n1 (stereo partly drawn) [I-52]	< 10
COc1cc2nn([C@H]3CC[C@H](CN(C)C4CCN(c5cccc6c5n(C)c(=O)n6C5CCC(=O)NC5=O)CC4)CC3)cc2cc1NC(=O)c1cncc(F)c1 (stereo partly drawn) [I-81]	< 10
Cn1c(=O)n(C2CCC(=O)NC2=O)c2cccc(N3CC4CC(C3)N4C[C@H]3CC[C@H](n4cc5cc(NC(=O)c6cccc(C(F)(F)F)n6)ccc5n4)CC3)c21 (single isomer, unassigned) [I-157, N-[2-[4-[[3-[1-(2,6-dioxo-3-piperidyl)-3-methyl-2-oxo-benzimidazol-4-yl]-3,6-diazabicyclo[3.1.1]heptan-6-yl]methyl]cyclohexyl]indazol-5-yl]-6-(trifluoromethyl)pyridine-2-carboxamide]	50 to 100
Cc1cccc(C(=O)Nc2cc3sc([C@H]4CC[C@H](CN5C[C@@H]6C[C@H]5CN6CCNc5cccc6c5C(=O)N(C5CCC(=O)NC5=O)C6=O)CC4)nc3cc2C(C)(C)O)n1 (stereo partly drawn) [I-473]	100 to 200
COc1cc2nn([C@H]3CC[C@H](CN4CCC5(CC4)CC(Nc4cccc6c4C(=O)N(C4CCC(=O)NC4=O)C6=O)C5)CC3)cc2cc1NC(=O)c1cnn2cccnc12 (stereo partly drawn) [I-13]	< 10
C[C@@H]1CN(c2cccc3c2n(C)c(=O)n3C2CCC(=O)NC2=O)CCN1C[C@H]1CC[C@H](n2cc3cc(NC(=O)c4cccc(C(F)(F)F)n4)c(C(C)(C)O)cc3n2)CC1 (stereo partly drawn) [I-226]	< 10
COc1cc2nc([C@H]3CC[C@H](CN4CCC(c5ccc6c(N7CCC(=O)NC7=O)cncc6c5)CC4)CC3)sc2cc1NC(=O)c1cccc(C(F)(F)F)n1 [I-125]	< 10
CC(C)(O)c1cc2nc([C@H]3CC[C@H](CN4CC5(CC(CCNc6cccc7c6C(=O)N(C6CCC(=O)NC6=O)C7=O)C5)C4)CC3)sc2cc1NC(=O)c1cncc(F)c1 (stereo partly drawn) [I-478]	10 to 50
COc1cc2nn([C@H]3CC[C@H](CN4CCC(c5cccc6c5n(C)c(=O)n6C5CCC(=O)NC5=O)CC4)CC3)cc2cc1NC(=O)c1cncc(Cl)c1 (stereo partly drawn) [I-93]	< 10
COc1cc2c(cc1NC(=O)c1cccc(C(F)(F)F)n1)cc([C@H]1CC[C@H](CN3CCC(c4cccc5c4n(C)c(=O)n5C4CCC(=O)NC4=O)CC3)CC1)n2C (stereo partly drawn) [I-43]	> 200
COc1cc2nn([C@H]3CC[C@H](CN4CCN(c5cccc6c(N7CCC(=O)NC7=O)cncc56)CC4)CC3)cc2cc1NC(=O)c1cncc(C#N)c1 [I-259]	10 to 50
